# Reference: patent US20130165446A1 (priority 2010, published 2013)
# Legend:
# [1] = molecular target: T1, human recombinant (CHO cell) AT1 receptor (Homo sapiens, UniProt P30556); assay: Angiotensin II inhibition test (radioligand binding to AT1 receptor); details: test compound concentration 10^−9 M; radioactive iodine-labeled angiotensin II, 37° C., sixty minutes; read-out: Inhibition rate (%)
# T1 construct: expressed in transfected cells; host or cells: CHO cells
# T1 sequence (P30556 1-359): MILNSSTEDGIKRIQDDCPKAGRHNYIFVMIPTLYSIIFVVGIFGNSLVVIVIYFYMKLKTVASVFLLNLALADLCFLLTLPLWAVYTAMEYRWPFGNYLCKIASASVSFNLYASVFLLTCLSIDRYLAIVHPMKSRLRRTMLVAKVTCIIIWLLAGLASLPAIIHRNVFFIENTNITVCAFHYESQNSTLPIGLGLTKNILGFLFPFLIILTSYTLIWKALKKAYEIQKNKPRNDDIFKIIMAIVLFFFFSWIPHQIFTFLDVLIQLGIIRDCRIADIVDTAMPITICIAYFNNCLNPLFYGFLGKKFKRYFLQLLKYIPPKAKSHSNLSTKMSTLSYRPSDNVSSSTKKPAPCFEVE
# Protocol: A test of inhibition of angiotensin II to human recombinant (CHO cell) AT1 receptor following a method described in the literature (for example, Regul. Pept., vol. 44 (2), page 131 (1993)) was used to measure inhibitory activity to a test compound.
# The ligand used was 10^−9 M of a test compound dissolved in 1% DMSO (dimethylsulfoxide). This was reacted with radioactive iodine-labeled angiotensin II at 37° C. for sixty minutes. Taking the inhibition rate of angiotensin II at 10 μM as nonspecific binding, the specific binding rate was calculated by subtracting this nonspecific portion. Table 6 indicates the results (the inhibition rate at test compound concentration: 10^−9 M)
# [2] = tested on: ob/ob mice (C57b1/6ob/ob female mice); assay: Glucose tolerance test (in vivo); details: for Glucose concentration: fasted ob/ob mice, oral load 2 g/kg glucose, Example 8 oral 10 mg/kg days 1-25 then 20 mg/kg days 26-33, rosiglitazone 3 mg/kg, n=8
# Protocol: (§1) A test compound (the compound of Example 8, n=8) was given orally to 5- to 6-week-old ob/ob mice (C57b1/6ob/ob female mice) at a dose of 10 mg/kg for 1-25 days, then a test compound (the compound of Example 8) was given at 20 mg/kg for 26-33 days. An oral load test of 2 g/kg of glucose was carried out while the mice were fasted, and the blood glucose concentration was measured at −30, 0, 30, 60, 90, 120, and 180 minutes. For comparison, 3 mg/kg of rosiglitazone (n=8) were given for 1-25 days, then 3 mg/kg of rosiglitazone were given for 26-33 days, and the blood glucose concentration was measured in the same manner. Table 7 indicates the results.
# [3] = Weight gain test (in vivo); details: ob/ob mice; for Weight gain: Example 8 10 mg/kg, rosiglitazone 3 mg/kg, days 1-25
# Protocol: as §1
# The body weight of mice was measured when 10 mg/kg of the same test compound (the compound of Example 8) were given for 1-25 days, and 3 mg/kg of rosiglitazone were given for 1-25 days. Table 8 indicates the results.
# [4] = molecular target: T2, human nuclear receptor PPARγ (Homo sapiens, UniProt P37231); assay: PPAR agonist activity measurement test (cell-free FRET cofactor assay), PPARγ; format: biochemical
# T2 sequence (P37231 238-503 limits assumed): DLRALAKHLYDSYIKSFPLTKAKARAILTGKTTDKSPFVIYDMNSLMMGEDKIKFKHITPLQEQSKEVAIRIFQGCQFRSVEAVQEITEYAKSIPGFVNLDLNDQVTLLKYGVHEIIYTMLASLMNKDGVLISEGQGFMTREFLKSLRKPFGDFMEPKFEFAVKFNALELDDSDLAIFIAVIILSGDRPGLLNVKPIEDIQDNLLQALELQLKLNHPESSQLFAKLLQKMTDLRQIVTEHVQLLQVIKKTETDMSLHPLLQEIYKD
# Protocol: (§2) Agonist activity to the human nuclear receptors PPARα, β, and γ was measured using a biochemical fluorescent resonance energy transfer (FRET) assay system, which is a cell-free assay system, following a method described in the literature (for example, J. Biol. Chem., vol. 281 (8), pages 4920-4930 (2006)).
# (§3) Specifically, after an N-terminal biotin-labeled peptide having cofactor peptide SRC1 (amino acid sequence 676-700), which includes the nuclear receptor bonding LXXLL motif region, and the fluorescent fusion proteins of the PPAR ligand binding domain were allowed to stand at room temperature for one hour, the energy transfer between the fluorescence donor and the fluorescence acceptor was measured to detect the test compound dose reaction to the cofactor.
# (§4) A Perkin-Elmer Envision Multilabel Plate Reader was used for measurement. During measurement, 320 nm was used as the excitation wavelength, and 615 nm and 665 nm were used as the emission wavelengths. The test compound was dissolved in DMSO (dimethylsulfoxide) to a final solution concentration of 1%.
# [5] = molecular target: T3, human nuclear receptor PPARα (Homo sapiens, UniProt Q07869); assay: PPAR agonist activity measurement test (cell-free FRET cofactor assay), PPARα; format: biochemical; details: result in words
# T3 sequence (Q07869 239-466 limits assumed): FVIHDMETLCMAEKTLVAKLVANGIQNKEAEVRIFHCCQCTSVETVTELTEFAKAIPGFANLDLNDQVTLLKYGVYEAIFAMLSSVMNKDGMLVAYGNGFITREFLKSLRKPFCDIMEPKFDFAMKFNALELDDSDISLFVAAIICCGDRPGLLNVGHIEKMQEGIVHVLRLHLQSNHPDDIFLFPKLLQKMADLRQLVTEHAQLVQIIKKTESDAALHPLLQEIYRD
# Protocol: as §2, §3, §4
# [6] = molecular target: T4, human nuclear receptor PPARβ (Homo sapiens, UniProt Q03181); assay: PPAR agonist activity measurement test (cell-free FRET cofactor assay), PPARβ; format: biochemical; details: result in words
# T4 sequence (Q03181 211-439 limits assumed): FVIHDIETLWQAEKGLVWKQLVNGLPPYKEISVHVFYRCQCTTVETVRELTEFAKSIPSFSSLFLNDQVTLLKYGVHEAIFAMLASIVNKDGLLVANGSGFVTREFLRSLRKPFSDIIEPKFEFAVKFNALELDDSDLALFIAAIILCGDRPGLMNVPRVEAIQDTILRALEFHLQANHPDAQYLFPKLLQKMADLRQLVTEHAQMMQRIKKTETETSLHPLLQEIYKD
# Protocol: as §2, §3, §4
smiles,measurement,setting,value
"CCCc1nc(CSc2ccc(Oc3ccc4nc(COc5ccc(CC6SC(=O)NC6=O)cc5)n(C)c4c3)cc2)c(C(=O)OCC)n1Cc1ccc(-c2ccccc2-c2nnn[nH]2)cc1 (centres unmarked) [Example 8, 4-[4-{2-[4-(2,4-dioxothiazolidin-5-ylmethyl)phenoxymethyl]-1-methyl-1H-benzimidazol-6-yloxy}phenylthiomethyl]-2-propyl-1-[2′-(1H-tetrazol-5-yl)biphenyl-4-ylmethyl]-1H-imidazole-5-carboxylic acid ethyl ester]",inhibition at 0.001 µM,[1],73%
same,Glucose concentration,[2]; 0 min,6.4 ± 0.6 mmol/L
same,Glucose concentration,[2]; 30 min,12.5 ± 0.9 mmol/L
same,Glucose concentration,[2]; 60 min,7.3 ± 0.9 mmol/L
same,Glucose concentration,[2]; 120 min,5.5 ± 0.6 mmol/L
same,Glucose concentration,[2]; 180 min,6.1 ± 0.6 mmol/L
same,increase in blood glucose concentration compared to the control,"[2]; ob/ob mice, oral glucose load 2 g/kg, result in words",significantly inhibited increase in blood glucose concentration compared to the control
same,Glucose concentration,[2]; −30 min,7.6 ± 0.9 mmol/L
same,Weight gain,[3]; day 0,0 g
same,Weight gain,[3]; day 4,0.8 ± 0.0 g
same,Weight gain,[3]; day 11,3.3 ± 0.2 g
same,Weight gain,[3]; day 14,4.2 ± 0.3 g
same,Weight gain,[3]; day 18,5.9 ± 0.3 g
same,Weight gain,[3]; day 24,6.8 ± 0.2 g
same,weight gain compared to the control,"[3]; 10 mg/kg days 1-25, result in words",nearly comparable weight gain to the control
same,weight gain compared to rosiglitazone,"[3]; 10 mg/kg days 1-25 vs rosiglitazone 3 mg/kg, result in words",significantly inhibited weight gain compared to rosiglitazone
same,activity against PPARγ,"[4]; FRET agonist assay, result in words",exhibited activity only against PPARy
same,EC50,"[4]; FRET, cofactor peptide SRC1, twelve concentrations 50 μM to 0 nM, 1% DMSO, read-out: ED50 (the source's name)",114 nM
same,activity against PPARα,[5],did not exhibit activity
same,activity against PPARβ,[6],did not exhibit activity
